SMILES strings stand for the structures. pEC50: −log10 of the molar value.

For one experiment, the system named is HT-1080 cells. Kind of experiment: HT-1080 cell viability assay (ferroptosis induced by RSL3, Cell Titer-Glo). Type of experiment: cell-based. The conditions noted are these: Homo sapiens, HT-1080, 20 h, ferroptosis inducer RSL3, 20 hours, ferroptosis inhibitory activity, Table 2. As to the method: Example 2. Determination of EC50 Values in HT-1080 Cell Viability Assay
HT-1080 (ATCC, CCL-121) cells (6000 in 100 μl) were seeded in 96-well plates (Corning) and cultured in a 37° C. incubator with a humidified atmosphere of 5% CO2 for overnight. Cells were then treated with ferroptosis inducer RSL3 (TargetMol) and a 3-fold, 10-point serial dilution series of compounds with 1.1 μM as the highest concentration, for 20 hours. Cell viability was assessed using the Cell Titer-Glo Kit (Promega). The luminescence intensity was measured with a microplate reader (Envision, PerkinElmer), and cell viability was calculated by normalizing the data to untreated controls. The EC50 values of the compounds (e.g., Compounds 1-573 and 574-661) were calculated in GraphPad Prism (GraphPad Software, Inc., San Diego, CA, USA). The curves were fitted using a non-linear regression model with a sigmoidal dose response.
`Cc1cc(NC2CCC(C)(N)CC2)cc(C)c1C` (single isomer, unassigned) [Compound 313A, 1-methyl-N4-(3,4,5-trimethylphenyl)cyclohexane-1,4-diamine] showed a negative-log EC50 (pEC50) of 7.00 to 10.00.
Still for that read-out and setting: in the case of `Cc1cc(NC2CC3(CC(N)C3)C2)cnc1N1C[C@H](C)O[C@@H](C)C1` (stereo in doubt) [Compound 480, N2-(6-((25,6S)-2,6-dimethylmorpholino)-5-methylpyridin-3-yl)spiro[3.3]heptane-2,6-diamine] it was 6.00 to 7.00.
In turn, `COc1cc(NC[C@H]2CC[C@H](N)CC2)ccc1N1C[C@@H](C)O[C@H](C)C1` (stereo in doubt) [Compound 496, N-(((1r,4R)-4-aminocyclohexyl)methyl)-4-((2S,6R)-2,6-dimethylmorpholino)-3-methoxyaniline] showed a pEC50 of 6.00 to 7.00.
Regarding `CCN1CC(C(=O)NCC2CCC(Nc3ccc(N4CCC(C(F)(F)F)CC4)cc3)CC2)CC1=O` (stereo not shown) [Compound 1, 1-ethyl-5-oxo-N-((4-((4-(4-(trifluoromethyl)piperidin-1-yl)phenyl)amino)cyclohexyl)methyl) pyr rolidine-3-carboxamide], the pEC50 is 7.00 to 10.00.
Consider `O=C1CC(C(=O)NCC2CCC(Nc3ccc(N4CCC(C(F)(F)F)CC4)cc3)CC2)CN1` (stereo not shown) [Compound 2, 5-oxo-N-((4-((4-(4-(trifluoromethyl)piperidin-1-yl)phenyl)amino)cyclohexyl)methyl)pyrrolidine-3-carboxamide], for which the negative logarithm of the EC50 (pEC50) was 7.00 to 10.00.
`NCC1CCC(Nc2ccc(N3CCC(C(F)(F)F)CC3)cc2)CC1` (stereo not shown) [Compound 3, N-(4-(aminomethyl)cyclohexyl)-4-(4-(trifluoromethyl)piperidin-1-yl)aniline] had a pEC50 of 7.00 to 10.00.
Consider `CC1CCC(Nc2ccc(N3CCC(C(F)(F)F)CC3)cc2)CC1` (stereo not shown) [Compound 4A, N-(4-methylcyclohexyl)-4-(4-(trifluoromethyl)piperidin-1-yl)aniline], for which the pEC50 is 7.00 to 10.00.
On the same count and under the same terms, in the case of `CCN1CCC(Nc2ccc(N3CCC(C(F)(F)F)CC3)cc2)CC1` [Compound 5, 1-ethyl-N-(4-(4-(trifluoromethyl)piperidin-1-yl)phenyl)piperidin-4-amine] it was 7.00 to 10.00.
On the same count and under the same terms, in the case of `COC(=O)C1CCC(Nc2ccc(N3CCC(C(F)(F)F)CC3)cc2)CC1` (stereo not shown) [Compound 6A, methyl 4-((4-(4-(trifluoromethyl)piperidin-1-yl)phenyl)amino)cyclohexane-1-carboxylate] it was 7.00 to 10.00.
Still for that read-out and setting: in the case of `CC(C)Nc1ccc(N2CCC(C(F)(F)F)CC2)cc1` [Compound 7, N-isopropyl-4-(4-(trifluoromethyl)piperidin-1-yl)aniline] it was 7.00 to 10.00; in that of `CN(C)C1CCC(Nc2ccc(N3CCC(C(F)(F)F)CC3)cc2)CC1` (stereo not shown) [Compound 8, N1,N1-dimethyl-N4-(4-(4-(trifluoromethyl)piperidin-1-yl)phenyl)cyclohexane-1,4-diamine], 7.00 to 10.00.
Consider `O=C(O)C1CCC(Nc2ccc(N3CCC(C(F)(F)F)CC3)cc2)CC1` (stereo not shown) [Compound 9, 4-((4-(4-(trifluoromethyl)piperidin-1-yl)phenyl)amino)cyclohexane-1-carboxylic acid], for which the pEC50 is 5.00 to 6.00.
The molecule `NC(=O)C1CCC(Nc2ccc(N3CCC(C(F)(F)F)CC3)cc2)CC1` (stereo not shown) [Compound 10, 4-((4-(4-(trifluoromethyl)piperidin-1-yl)phenyl)amino)cyclohexane-1-carboxamide] had a pEC50 of 7.00 to 10.00.
`CC(C)(C)Nc1ccc(N2CCC(C(F)(F)F)CC2)cc1` [Compound 11, N-(tert-butyl)-4-(4-(trifluoromethyl)piperidin-1-yl)aniline] gave a pEC50 of 6.00 to 7.00.
Molecule `COCCCCNc1ccc(N2CCC(C(F)(F)F)CC2)cc1` [Compound 12, N-(4-methoxybutyl)-4-(4-(trifluoromethyl)piperidin-1-yl)aniline] had a negative-log EC50 (pEC50) of 7.00 to 10.00.
`CCNc1ccc(N2CCC(C(F)(F)F)CC2)cc1` [Compound 13, N-ethyl-4-(4-(trifluoromethyl)piperidin-1-yl)aniline] gave a pEC50 of 7.00 to 10.00.
`CCCNc1ccc(N2CCC(C(F)(F)F)CC2)cc1` [Compound 14, N-propyl-4-(4-(trifluoromethyl)piperidin-1-yl)aniline] gave a pEC50 of 7.00 to 10.00.
`CCCCCNc1ccc(N2CCC(C(F)(F)F)CC2)cc1` [Compound 15, N-pentyl-4-(4-(trifluoromethyl)piperidin-1-yl)aniline] showed a negative logarithm of the EC50 (pEC50) of 7.00 to 10.00.
On to `CN1CCC(Nc2ccc(N3CCC(C(F)(F)F)CC3)cc2)C1` (stereo not shown) [Compound 16, 1-methyl-N-(4-(4-(trifluoromethyl)piperidin-1-yl)phenyl)pyrrolidin-3-amine], for which the pEC50 is 7.00 to 10.00.
`FC(F)(F)C1CCN(c2ccc(NC3CCOCC3)cc2)CC1` [Compound 17, N-(4-(4-(trifluoromethyl)piperidin-1-yl)phenyl)tetrahydro-2H-pyran-4-amine] showed a negative-log EC50 (pEC50) of 7.00 to 10.00.
On the same count and under the same terms, the same measure for `O=C1NC[C@H](C(=O)NCC2CCC(Nc3ccc(N4CCC(C(F)(F)F)CC4)cc3)CC2)N1` (stereo partly drawn) [Compound 18, (R)-2-oxo-N-((4-((4-(4-(trifluoromethyl)piperidin-1-yl)phenyl)amino)cyclohexyl)methyl)imidaz olidine-4-carboxamide]: 7.00 to 10.00.
The same measure, in the same setting: in the case of `O=C(NCC1CCC(Nc2ccc(N3CCC(C(F)(F)F)CC3)cc2)CC1)C1CCNC1` (stereo not shown) [Compound 19, N-((4-((4-(4-(trifluoromethyl)piperidin-1-yl)phenyl)amino)cyclohexyl)methyl)pyrrolidine-3-car boxamide] it was 7.00 to 10.00; in that of `NCC1CCC(Nc2ccc(N3CCC(C(F)(F)F)CC3)nc2)CC1` (stereo not shown) [Compound 21, N-(4-(aminomethyl)cyclohexyl)-6-(4-(trifluoromethyl)piperidin-1-yl)pyridin-3-amine], 7.00 to 10.00.

The experiment is the same for the next values; noted with them: Homo sapiens, ferroptosis inducer RSL3, 20 hours, ferroptosis inhibitory activity, Table 2.
Molecule `CCC(C)(C)c1ccc(NC2CCC(N)CC2)cc1` (single isomer, unassigned) [Compound 232A, N1-(4-(tert-pentyl)phenyl)cyclohexane-1,4-diamine] showed a pEC50 of 7.00 to 10.00.
In the case of `NC(=O)[C@@H]1CCC(Nc2ccc(N3CCC(C(F)(F)F)CC3)cc2)[C@@H](N)C1` (stereo in doubt) [Compound 502, (1R,3S)-3-amino-4-((4-(4-(trifluoromethyl)piperidin-1-yl)phenyl)amino)cyclohexane-1-carboxamide], the pEC50 is 7.00 to 10.00.
Still for that read-out and setting: the same measure for `FC(F)(F)C1CCN(c2ccc(NC3CCNCC3)cc2)CC1` [Compound 20, N-(4-(4-(trifluoromethyl)piperidin-1-yl)phenyl)piperidin-4-amine]: 7.00 to 10.00.

The experiment is the same for the next values; noted with them: ferroptosis inducer RSL3, 20 hours, ferroptosis inhibitory activity, Table 2.
For the molecule `CC1CC(N)CCC1Nc1ccc(C(C)(C)C)cc1` (single isomer, unassigned) [Compound 252A, N1-(4-(tert-butyl)phenyl)-2-methylcyclohexane-1,4-diamine], the pEC50 was 6.00 to 7.00.
With `CCC(C)c1ccc(NC2CCC(N)CC2)cc1` (single isomer, unassigned) [Compound 289A, 1-N-(4-(sec-butyl)phenyl)cyclohexane-1,4-diamine], the pEC50 is 7.00 to 10.00.
Same read-out and setting: in the case of `CCC(C)c1ccc(NC2CCC(N)CC2)cc1` (single isomer, unassigned) [Compound 289B, 1-N-(4-(sec-butyl)phenyl)cyclohexane-1,4-diamine] it was 6.00 to 7.00.
The same measure, in the same setting: the same measure for `CCC(C)(C)c1ccc(NC2CCC(NCCO)CC2)cc1` (single isomer, unassigned) [Compound 295A, 2-((4-((4-(tert-pentyl)phenyl)amino)cyclohexyl)amino)ethan-1-ol]: 6.00 to 7.00.
Same read-out and setting: in the case of `CCC(C)(C)c1ccc(NC2CCC(NCCO)CC2)cc1` (single isomer, unassigned) [Compound 295B, 2-((4-((4-(tert-pentyl)phenyl)amino)cyclohexyl)amino)ethan-1-ol] it was 7.00 to 10.00; in that of `CC(C)(C)c1ccc(NCC2CC(N)C2)cc1` (single isomer, unassigned) [Compound 335A, N-((3-aminocyclobutyl)methyl)-4-(tert-butyl)aniline], 6.00 to 7.00.
`CC(C)(C)c1ccc(NCC2CC(N)C2)cc1` (single isomer, unassigned) [Compound 335B, N-((3-aminocyclobutyl)methyl)-4-(tert-butyl)aniline] gave a pEC50 of 7.00 to 10.00.
Still for that read-out and setting: the same measure for `NC1CCC(Nc2ccc(N3CCCCC3CO)cc2)CC1` (single isomer, unassigned) [Compound 417A, (1-(4-((4-aminocyclohexyl)amino)phenyl)piperidin-2-yl)methanol]: 7.00 to 10.00; for `NC1CCC(Nc2ccc(N3CCCCC3CO)cc2)CC1` (single isomer, unassigned) [Compound 417B, (1-(4-((4-aminocyclohexyl)amino)phenyl)piperidin-2-yl)methanol]: 6.00 to 7.00.
In turn, `Cc1nc(N2CC(C)OC(C)C2)c(F)cc1NC1C2CC3CC1CC(CN)(C3)C2` (single isomer, unassigned) [Compound 539A, N-((2r,5s)-5-(aminomethyl)adamantan-2-yl)-6-(2,6-dimethylmorpholino)-5-fluoro-2-methylpyridin-3-amine] had a pEC50 of 7.00 to 10.00.
For `Cc1nc(N2CC(C)OC(C)C2)c(F)cc1NC1C2CC3CC1CC(CN)(C3)C2` (single isomer, unassigned) [Compound 539B, N-((2r,5s)-5-(aminomethyl)adamantan-2-yl)-6-(2,6-dimethylmorpholino)-5-fluoro-2-methylpyridin-3-amine], the pEC50 was 6.00 to 7.00.

The term pEC50 denotes the EC50 on a negative log10 scale, so that one unit is a factor of ten. A low value points to a large EC50.
